Data set [1] can be described thus: Solubility statements (water, n-heptane). The note with it: n-heptane at the working temperature (25° C.). Format: physicochemical.
The conditions of data set [2]: stated as known; cited from earlier work.
The nature of data set [3]: Solubility of nepafenac at reflux temperature in crystallization solvent. Format: physicochemical. To be noted: thermodynamic from solid, read-out: Solubility. As for the experimental part: General procedure: Nepafenac was dissolved under magnetical stirring and at reflux in a solvent (See Table 1). The solution was cooled to room temperature under stirring. The solid was filtered and dried. The different conditions and the obtained results are described in Table 1 below.

Data set [4] in a line: Density by glass pycnometer in n-heptane. Format: physicochemical. The note with it: experimental. As for the experimental part:
Density of nepafenac samples was determined at 25° C. using a 50 mL glass pycnometer. […] The density of the nepafenac sample (ρs) can be determined from the known density of n-heptane (ρH: 0.685 g/cm^3), the weight of the pycnometer filled only with n-heptane (WH^0, the weight of the filled pycnometer containing both nepafenac and n-heptane (WS+H), and the weight of nepafenac (WS):
Density of nepafenac samples was determined for three times, being the listed result the mean of the three values available for each sample.

Molecules are shown by their SMILES. In brackets after ≈: the same amount, converted by molar mass. Read-outs that look alike come from different tables or passages of the source.

One may read the solubility as how much of the substance goes into solution per volume.

Turning to `NC(=O)Cc1cccc(C(=O)c2ccccc2)c1N` [nepafenac, 2-amino-3-benzoylbenzeneacetamide, reference compound], in data set [1], the Solubility in n-heptane result was “practically insoluble”. Moreover, in data set [2], the Solubility in water entry is “practically insoluble”. Besides, the solubility is 21 mg/mL (≈ 82.6 mM) in data set [3] (2-propanol, organic solvent or mixture, in 2-propanol at reflux temperature); 30 to 80 mg/mL (≈ 118 to 315 mM) in data set [3] (mixtures of 2-propanol with up to 40% of water, organic solvent or mixture, in mixtures of 2-propanol with up to 40% of water at reflux temperature); 0.7 mg/mL (≈ 2.75 mM) in data set [3] (water, 100 °C, water, in water at reflux temperature). In data set [4], the True density came to 1.33 g/mL.

(Values after patent US20100234469A1, “New Crystals Of A Benzoylbenzeneacetamide Derivative” (Medichem, S.A., priority 2009, published 2010).)
